Experimental data from patent US11166940B2, “Treatment of cardiac disorders by blocking SK4 potassium channel” (Ramot at Tel-Aviv University Ltd., priority 2016, dated 2021).

What was measured:
If and INCX currents = details: 5 μM TRAM-34; cited from earlier work
[1] = tested on: T type and L-type Ca2+ currents; experiment: Selectivity: voltage-ramp protocol in hESC-CMs, zero free Ca2+ in pipet; assay type: cell-based, human; details: 5 μM TRAM-34; zero free Ca2+ in pipet solution; n=7
Procedure: The experiments were performed in zero free Ca2+ in the pipet solution.

[2] = tested on: intact SAN from CASQ2 D307H KI mice; experiment: Spontaneous calcium transients ex vivo in intact SAN tissue from CASQ2-D307H KI mice (Fluo-4 AM); assay type: cell-based, mouse; details: 2 μM TRAM-34 added to 100 nM isoproterenol
Procedure: SAN tissue preparations were dissected ex vivo from WT and CASQ2-D307H KI mice as described in Torrente, A. G., et al. Proc Natl Acad Sci USA 112, 9769-9774 (2015). The dissected whole SAN tissue was pinned on a hand-made chamber and was incubated in a Tyrode solution containing 10 μM Fluo-4 AM (Thermo Fisher Scientific) and pluronic acid for 1 hour at 37° C. in the dark. The SAN tissue was washed in Tyrode at 37° C. in the dark for 10 minutes before experiments. Fluorescence of calcium transients was recorded using a photomultiplier (PTi D-104) at 35° C. and the analog signals were digitized using Digidata 1440 (Molecular Devices) and analyzed with pCLAMP 10.5 software.
To investigate the spontaneous calcium transients of the SAN, intact SAN tissue preparations dissected ex vivo from WT and CASQ2-D307H KI mice were exposed to Fluo-4 AM as previously described [Torrente, A. G., et al. Proc Natl Acad Sci USA 112, 9769-9774 (2015)].
FIG. 6B presents representative traces of different types of calcium transient abnormalities recorded in intact SAN from CASQ2 D307H KI mice, termed as “local Ca^2+ release” (upper left), “double humped transients” (upper right), “large-stored released Ca^2+ waves” (lower left) and “calcium alternans” (lower right).
FIG. 6C presents representative trace of spontaneous calcium transients recorded from intact SAN of CASQ2 D307H KI. The baseline rate of calcium transients (control, black trace) yielded chaotic calcium transients (red trace) following incubation of the SAN with 100 nM isoproterenol.

## Clc1ccccc1C(c1ccccc1)(c1ccccc1)n1cccn1 [TRAM-34, 1-[(2-chlorophenyl)diphenylmethyl]-1H-pyrazole]
If and INCX currents
  If and INCX currents: unaffected
[1]
  T type and L type Ca2+ currents (two inward humps): does not alter the voltage-gated Ca2+ currents
[2]
  number of SANs displaying double humped transients or large-stored released Ca2+ waves: zero
  shapes of isoproterenol induced aberrant calcium waves: normalized the shapes of isoproterenol induced aberrant calcium waves
